Reference: the NIST ThermoML archive (doi:10.1016/j.jct.2016.07.023)
Numbers after ± are expanded uncertainties.

Details: 303.15 K; 101.1 kPa; Crystal; flotation method

mass density: 1528.6 ± 2.7 kg/m3
Structure (SMILES): Cc1cc(C(=O)O)ccc1[N+](=O)[O-] [3-methyl-4-nitrobenzoic acid]
